Laboratory results as given in patent US10844074B2, “Heterocycle compounds and uses thereof” (ZHEJIANG JIANFENG-YIEN BIOTECHNOLOGY CO., LTD., priority 2015, dated 2020).

Molecular target: BTK (Homo sapiens, UniProt Q06187)
Experiment: BTK Enzyme Assay
Assay type: biochemical
Conditions: 1 uM compound; read-out: BTK (% inh @ 1 uM)
Method: The following TABLE II lists compounds representative of the invention and their activity in BTK assays. In these assays, the following grading was used: A: >30% inhibition @1 μM; B: <30% inhibition @1 μM.

Chain of BTK (Q06187 whole entry): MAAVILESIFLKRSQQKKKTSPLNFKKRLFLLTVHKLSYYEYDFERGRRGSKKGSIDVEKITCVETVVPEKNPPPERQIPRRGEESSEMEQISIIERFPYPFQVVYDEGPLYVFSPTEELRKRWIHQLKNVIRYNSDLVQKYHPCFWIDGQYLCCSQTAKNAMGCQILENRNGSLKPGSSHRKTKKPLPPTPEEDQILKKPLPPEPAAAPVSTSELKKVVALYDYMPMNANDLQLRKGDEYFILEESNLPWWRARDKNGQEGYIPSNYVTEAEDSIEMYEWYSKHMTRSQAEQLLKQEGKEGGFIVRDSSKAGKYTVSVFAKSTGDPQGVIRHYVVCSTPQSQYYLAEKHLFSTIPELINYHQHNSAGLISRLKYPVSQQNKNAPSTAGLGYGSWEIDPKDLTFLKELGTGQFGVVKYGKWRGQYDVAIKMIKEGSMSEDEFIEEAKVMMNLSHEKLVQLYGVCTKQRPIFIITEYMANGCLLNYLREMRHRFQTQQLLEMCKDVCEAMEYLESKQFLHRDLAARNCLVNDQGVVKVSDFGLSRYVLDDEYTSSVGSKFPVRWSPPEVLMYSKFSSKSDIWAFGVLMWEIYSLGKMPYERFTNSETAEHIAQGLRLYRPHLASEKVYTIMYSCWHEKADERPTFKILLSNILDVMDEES

Row | Structure (SMILES) | inhibition at 1 µM [%]
1 | C=CC(=O)Nc1cc(Nc2nc(-c3ccc(NC)cc3)c3sccc3n2)c(OC)cc1N(C)CC [Compound 39, N-[2-[ethyl(methyl)amino]-4-methoxy-5-[[4-[4-(methylamino)phenyl]thieno[3,2-d]pyrimidin-2-yl]amino]phenyl]prop-2-enamide] | > 30
2 | C=CC(=O)Nc1cc(Nc2nc(-c3cn(C)c4ccccc34)c3sccc3n2)c(OC)cc1OCCN1CCOCC1 [Compound 34, N-[4-methoxy-5-[[4-(1-methylindol-3-yl)thieno[3,2-d]pyrimidin-2-yl]amino]-2-(2-morpholinoethoxy)phenyl]prop-2-enamide] | < 30
3 | C=CC(=O)Nc1cc(N(C)c2nc(-c3c[nH]c4ccccc34)c3sccc3n2)c(OC)cc1N1CCOCC1 [Compound 51, N-[5-[[4-(1H-indol-3-yl)thieno[3,2-d]pyrimidin-2-yl]-methyl-amino]-4-methoxy-2-morpholino-phenyl]prop-2-enamide] | < 30
4 | C=CC(=O)Nc1cc(NC2=NC(c3cccc(NC)c3)C3SC=CC3=N2)c(OC)cc1N1CCC(C(=O)N(C)C)CC1 (centres unmarked) [Compound 17, 1-[5-methoxy-4-[[4-[3-(methylamino)phenyl]-4,4a-dihydrothieno[3,2-d]pyrimidin-2-yl]amino]-2-(prop-2-enoylamino)phenyl]-N,N-dimethyl-piperidine-4-carboxamide] | < 30
5 | C=CC(=O)Nc1cc(Nc2nc(-c3c[nH]c4ccccc34)c3sccc3n2)c(OC)cc1N1CCN(C)CC1 [Compound 21, N-[5-[[4-(1H-indol-3-yl)thieno[3,2-d]pyrimidin-2-yl]amino]-4-methoxy-2-(4-methylpiperazin-1-yl)phenyl]prop-2-enamide] | > 30
6 | C=CC(=O)Nc1cc(N(C)c2nc(-c3cn(C)c4ccccc34)c3sccc3n2)c(OC)cc1N(C)CCN(C)C [Compound 54, N-[2-[2-(dimethylamino)ethyl-methyl-amino]-4-methoxy-5-[methyl-[4-(1-methylindol-3-yl)thieno[3,2-d]pyrimidin-2-yl]amino]phenyl]prop-2-enamide] | < 30
7 | C=CC(=O)Nc1cc(NC2=NC(c3cccc(N(C)C)c3)C3SC=CC3=N2)c(OC)cc1N1CCC(C(=O)N(C)C)CC1 (centres unmarked) [Compound 16, 1-[4-[[4-[3-(dimethylamino)phenyl]-4,4a-dihydrothieno[3,2-d]pyrimidin-2-yl]amino]-5-methoxy-2-(prop-2-enoylamino)phenyl]-N,N-dimethyl-piperidine-4-carboxamide] | > 30
8 | C=CC(=O)Nc1cc(Nc2nc(-c3ccn(C)c3)c3sccc3n2)c(OC)cc1N1CCN(C)CC1 [Compound 48, N-[4-methoxy-2-(4-methylpiperazin-1-yl)-5-[[4-(1-methylpyrrol-3-yl)thieno[3,2-d]pyrimidin-2-yl]amino]phenyl]prop-2-enamide] | > 30
9 | C=CC(=O)Nc1cc(NC2=NC(c3cccc(N)c3)C3SC=CC3=N2)c(OC)cc1N1CCN(C)CC1 (centres unmarked) [Compound 19, N-[5-[[4-(3-aminophenyl)-4,4a-dihydrothieno[3,2-d]pyrimidin-2-yl]amino]-4-methoxy-2-(4-methylpiperazin-1-yl)phenyl]prop-2-enamide] | < 30
10 | C=CC(=O)Nc1cc(NC2=NC(c3cccc(OC)c3)C3C(=N2)C=CN3C)c(OC)cc1N1CCC(N(C)C)CC1 (centres unmarked) [Compound 28, N-[2-[4-(dimethylamino)-1-piperidyl]-4-methoxy-5-[[4-(3-methoxyphenyl)-5-methyl-4,4a-dihydropyrrolo[3,2-d]pyrimidin-2-yl]amino]phenyl]prop-2-enamide] | < 30
11 | C=CC(=O)Nc1cc(Nc2nc(-c3ccccc3)c3ccsc3n2)c(OC)cc1N1CCN(C)CC1 [Compound 42, N-[4-methoxy-2-(4-methylpiperazin-1-yl)-5-[(4-phenylthieno[2,3-d]pyrimidin-2-yl)amino]phenyl]prop-2-enamide] | < 30
12 | C=CC(=O)Nc1cc(NC2=NC(c3cccc(NC)c3)C3SC=CC3=N2)c(OC)cc1N1CCN(C)CC1 (centres unmarked) [Compound 7, N-[4-methoxy-5-[[4-[3-(methylamino)phenyl]-4,4a-dihydrothieno[3,2-d]pyrimidin-2-yl]amino]-2-(4-methylpiperazin-1-yl)phenyl]prop-2-enamide] | > 30
13 | C=CC(=O)Nc1cc(Nc2nc(-c3ccccc3NC)c3sccc3n2)c(OC)cc1N(C)CCN(C)C [Compound 31, N-[2-[2-(dimethylamino)ethyl-methyl-amino]-4-methoxy-5-[[4-[2-(methylamino)phenyl]thieno[3,2-d]pyrimidin-2-yl]amino]phenyl]prop-2-enamide] | < 30
14 | C=CC(=O)Nc1cc(Nc2nc(-c3cc[nH]c3)c3ccsc3n2)c(OC)cc1N1CCN(C)CC1 [Compound 47, N-[4-methoxy-2-(4-methylpiperazin-1-yl)-5-[[4-(1H-pyrrol-3-yl)thieno[2,3-d]pyrimidin-2-yl]amino]phenyl]prop-2-enamide] | < 30
15 | C=CC(=O)Nc1cc(NC2=NC(c3cccc(N(C)C)c3)C3SC=CC3=N2)c(OC)cc1N(C)C (centres unmarked) [Compound 4, N-[2-(dimethylamino)-5-[[4-[3-(dimethylamino)phenyl]-4,4a-dihydrothieno[3,2-d]pyrimidin-2-yl]amino]-4-methoxy-phenyl]prop-2-enamide] | > 30
16 | C=CC(=O)Nc1cc(Nc2nc(-c3ccn(C)c3)c3ccsc3n2)c(OC)cc1N1CCN(C)CC1 [Compound 46, N-[4-methoxy-2-(4-methylpiperazin-1-yl)-5-[[4-(1-methylpyrrol-3-yl)thieno[2,3-d]pyrimidin-2-yl]amino]phenyl]prop-2-enamide] | > 30
17 | C=CC(=O)Nc1cc(Nc2nc(-c3ccc(NC(C)(C)C)cc3)c3sccc3n2)c(OC)cc1N1CCN(C)CC1 [Compound 27, N-[5-[[4-[4-(tert-butylamino)phenyl]thieno[3,2-d]pyrimidin-2-yl]amino]-4-methoxy-2-(4-methylpiperazin-1-yl)phenyl]prop-2-enamide] | > 30
18 | C=CC(=O)Nc1cc(NC2=NC(c3cccc(NC)c3)C3SC=CC3=N2)c(OC)cc1OCCN(C)C (centres unmarked) [Compound 13, N-[2-[2-(dimethylamino)ethoxy]-4-methoxy-5-[[4-[3-(methylamino)phenyl]-4,4a-dihydrothieno[3,2-d]pyrimidin-2-yl]amino]phenyl]prop-2-enamide] | > 30
19 | C=CC(=O)Nc1cc(NC2=NC(c3cccc(N(C)C)c3)C3SC=CC3=N2)c(OC)cc1OCCN(C)C (centres unmarked) [Compound 12, N-[2-[2-(dimethylamino)ethoxy]-5-[[4-[3-(dimethylamino)phenyl]-4,4a-dihydrothieno[3,2-d]pyrimidin-2-yl]amino]-4-methoxy-phenyl]prop-2-enamide] | > 30
20 | C=CC(=O)Nc1cc(Nc2nc(-c3c[nH]c4ccccc34)c3sccc3n2)c(OC)cc1N1CCOCC1 [Compound 23, N-[5-[[4-(1H-indol-3-yl)thieno[3,2-d]pyrimidin-2-yl]amino]-4-methoxy-2-morpholino-phenyl]prop-2-enamide] | > 30
21 | C=CC(=O)Nc1cc(NC2=NC(c3cccc(N(C)C)c3)C3SC=CC3=N2)c(OC)cc1N(C)CCN1CCOCC1 (centres unmarked) [Compound 8, N-[5-[[4-[3-(dimethylamino)phenyl]-4,4a-dihydrothieno[3,2-d]pyrimidin-2-yl]amino]-4-methoxy-2-[methyl(2-morpholinoethyl)amino]phenyl]prop-2-enamide] | > 30
22 | C=CC(=O)Nc1cc(NC2=NC(c3cccc(NC)c3)C3SC=CC3=N2)c(OC)cc1OCCN1CCCCC1 (centres unmarked) [Compound 15, N-[4-methoxy-5-[[4-[3-(methylamino)phenyl]-4,4a-dihydrothieno[3,2-d]pyrimidin-2-yl]amino]-2-[2-(1-piperidyl)ethoxy]phenyl]prop-2-enamide] | > 30
23 | C=CC(=O)Nc1cc(Nc2nc(-c3cccc4ccn(C)c34)c3sccc3n2)c(OC)cc1N1CCN(C)CC1 [Compound 44, N-[4-methoxy-5-[[4-(1-methylindol-7-yl)thieno[3,2-d]pyrimidin-2-yl]amino]-2-(4-methylpiperazin-1-yl)phenyl]prop-2-enamide] | > 30
24 | C=CC(=O)Nc1cc(Nc2nc(-c3cc[nH]c3)c3sccc3n2)c(OC)cc1N1CCN(C)CC1 [Compound 49, N-[4-methoxy-2-(4-methylpiperazin-1-yl)-5-[[4-(1H-pyrrol-3-yl)thieno[3,2-d]pyrimidin-2-yl]amino]phenyl]prop-2-enamide] | > 30
25 | C=CC(=O)Nc1cc(N(C)c2nc(-c3c[nH]c4ccccc34)c3sccc3n2)c(OC)cc1N(C)CCN(C)C [Compound 53, N-[2-[2-(dimethylamino)ethyl-methyl-amino]-5-[[4-(1H-indol-3-yl)thieno[3,2-d]pyrimidin-2-yl]-methyl-amino]-4-methoxy-phenyl]prop-2-enamide] | > 30
26 | C=CC(=O)Nc1cc(Nc2nc(-c3cn(C)c4ccccc34)c3sccc3n2)c(OC)cc1N(C)C [Compound 38, N-[2-(dimethylamino)-4-methoxy-5-[[4-(1-methylindol-3-yl)thieno[3,2-d]pyrimidin-2-yl]amino]phenyl]prop-2-enamide] | > 30
27 | C=CC(=O)Nc1cc(Nc2nc(-c3c[nH]c4ccccc34)c3sccc3n2)c(OC)cc1N1CCC(NC)CC1 [Compound 3, N-[5-[[4-(1H-indol-3-yl)thieno[3,2-d]pyrimidin-2-yl]amino]-4-methoxy-2-[4-(methylamino)-1-piperidyl]phenyl]prop-2-enamide] | > 30
28 | C=CC(=O)Nc1cc(Nc2nc(-c3ccccc3)c3ccsc3n2)c(OC)cc1N(C)CC [Compound 40, N-[2-[ethyl(methyl)amino]-4-methoxy-5-[(4-phenylthieno[2,3-d]pyrimidin-2-yl)amino]phenyl]prop-2-enamide] | < 30
29 | C=CC(=O)Nc1cc(Nc2nc(-c3cccc4cc[nH]c34)c3sccc3n2)c(OC)cc1N1CCN(C)CC1 [Compound 45, N-[5-[[4-(1H-indol-7-yl)thieno[3,2-d]pyrimidin-2-yl]amino]-4-methoxy-2-(4-methylpiperazin-1-yl)phenyl]prop-2-enamide] | < 30
